Experimental data: patent US10441663B2, “Methods for treating cancer” (Bicycle Therapeutics Limited, priority 2016, dated 2019)
*1 amine or outer side, *2 acyl side, *3 side chain or, on linkers, in order; H or OH if unused. Where a SMILES comes first, the peptide text is derived from it. Bridges are numbered along the chain shown (N, C = ends). [ ]: non-standard residue; d: D form. The star is where a group is joined. X1 = COc1cc2cc(c1Cl)N(C)C(=O)C[C@H](OC(=O)[C@H](C)N(C)C(=O)CCSSC(C)CCC(=O)*)[C@]1(C)O[C@H]1[C@H](C)[C@@H]1C[C@@](O)(NC(=O)O1)[C@H](OC)/C=C/C=C(\C)C2; 1Nal = N[C@@H](Cc1cccc2ccccc12)C(=O)O; TBMB = c1c(C[*:1])cc(C[*:3])cc1C[*:2]; Tle = CC(C)(C)[C@H](N)C(=O)O; βAla = NCCC(=O)O; Sar = CNCC(=O)O

Experiments:
NCI-H1975 xenograft = assay: In vivo efficacy of BT1718 in NCI-H1975 xenograft; parameters: species or system Mus Musculus; key to Best response at 10 mg/kg: CR complete response; PR partial response
Method: (§1) The objective of this study was to evaluate the in vivo anti-tumor efficacy of BT1718in treatment of HT1080, NCI-H292, NCI-H1975, MDA-MB-231, HCC1806, RPMI2650, HCT-15, HT-29 and SNU-16 xenograft in BALB/c nude mice.
(§2) The HT1080, NCI-H292, NCI-H1975, MDA-MB-231, HCC1806, RPMI2650, HCT-15, HT-29 and SNU-16 tumor cells were maintained in vitro as a monolayer culture in medium supplemented with 10% heat inactivated fetal bovine serum at 37° C. in an […]. The tumor cells will be routinely subcultured twice weekly by trypsin-EDTA treatment. The cells growing in an exponential growth phase will be harvested and counted for tumor inoculation.
(§3) Mouse was inoculated subcutaneously at the right flank with tumor cells for tumor development. The animals were randomized and treatment was started when the average tumor reaches certain volume for the efficacy study, the inoculating cell amounts and starting tumor size were shown as below in Table 9. The test article administration and the animal numbers in each group were shown in the experimental design in Table 10.
(§4) All the procedures related to animal handling, care and the treatment in the study were performed according to the guidelines of the Association for Assessment and Accreditation of Laboratory Animal Care (AAALAC). At the time of routine monitoring, the animals were daily checked for any effects of tumor growth and treatments on normal behavior such as mobility, food and water consumption (by looking only), body weight gain/loss (body weights were measured every day), eye/hair matting and any other abnormal effect as stated in the protocol. Death and observed clinical signs were recorded on the basis of the numbers of animals within each subset.
(§5) The major endpoint was to see if the tumor growth could be delayed or mice could be cured. Tumor size was measured three times weekly in two dimensions using a caliper, and the volume was expressed in mm^3 using the formula: V=0.5 a×b^2 where a and b are the long and short diameters of the tumor, respectively. The tumor size was then used for calculations of T/C value. The T/C value (in percent) is an indication of antitumor effectiveness; T and C are the mean volumes of the treated and control groups, respectively, on a given day.
(§6) TGI was calculated for each group using the formula: TGI (%)=[1−(Ti−T0)/(Vi−V0)]×100; Ti is the average tumor volume of a treatment group on a given day, T0 is the average tumor volume of the treatment group on the day of treatment start, Vi is the average tumor volume of the vehicle control group on the same day with Ti, and V0 is the average tumor volume of the vehicle group on the day of treatment start.
(§7) Summary statistics, including mean and the standard error of the mean (SEM), are provided for the tumor volume of each group at each time point.
(§8) Statistical analysis of difference in tumor volume among the groups was conducted on the data obtained at the best therapeutic time point after the final dose.
(§9) A one-way ANOVA was performed to compare tumor volume among groups, and when a significant F-statistics (a ratio of treatment variance to the error variance) was obtained, comparisons between groups were carried out with Games-Howell test. All data were analyzed using Prism. P<0.05 was considered to be statistically significant.

HT-29 xenograft = assay: In vivo efficacy of BT1718 in HT-29 xenograft; parameters: species or system Mus Musculus; key to Best response at 10 mg/kg: CR complete response; PR partial response
Method: as §1, §2, §3, §4, §5, §6, §7, §8, §9

## COc1cc2cc(c1Cl)N(C)C(=O)C[C@H](OC(=O)[C@H](C)N(C)C(=O)CCSSC(C)CCC(=O)NCCC(=O)N(C)CC(=O)N(C)CC(=O)N(C)CC(=O)N(C)CC(=O)N(C)CC(=O)N(C)CC(=O)N(C)CC(=O)N(C)CC(=O)N(C)CC(=O)N(C)CC(=O)N[C@@H](C)C(=O)N[C@H]1CSCc3cc4cc(c3)CSC[C@H](NC(=O)[C@@H](C)NC(=O)[C@H](Cc3cccc5ccccc35)NC(=O)[C@H](CCC(=O)O)NC(=O)[C@H](CC(N)=O)NC(=O)[C@@H](C)NC1=O)C(=O)N[C@@H](CCC(=O)O)C(=O)N[C@@H](CC(=O)O)C(=O)N[C@@H](Cc1ccccc1)C(=O)N[C@@H](Cc1ccc(O)cc1)C(=O)N[C@@H](CC(=O)O)C(=O)N[C@@H](C(C)(C)C)C(=O)N[C@H](C(N)=O)CSC4)[C@]1(C)O[C@H]1[C@H](C)[C@@H]1C[C@@](O)(NC(=O)O1)[C@H](OC)/C=C/C=C(\C)C2 (stereo partly shown) [BT1718] ({X1-βAla}-[Sar][Sar][Sar][Sar][Sar][Sar][Sar][Sar][Sar][Sar]AC[dA]NE[1Nal][dA]CEDFYD[Tle]C-NH2; linker 12-18-25 via TBMB (inferred))
NCI-H1975 xenograft; 1 mpk biw, day 0
  Body Weight: 23.9 ± 0.7 g
  Tumor Volume: 170 ± 9 mm^3
NCI-H1975 xenograft; 1 mpk biw, day 2
  Body Weight: 23.5 ± 0.7 g
  Tumor Volume: 224 ± 33 mm^3
NCI-H1975 xenograft; 1 mpk biw, day 4
  Body Weight: 24.0 ± 0.9 g
  Tumor Volume: 352 ± 69 mm^3
NCI-H1975 xenograft; 1 mpk biw, day 7
  Body Weight: 24.4 ± 0.7 g
  Tumor Volume: 587 ± 134 mm^3
NCI-H1975 xenograft; 1 mpk biw, day 9
  Body Weight: 24.6 ± 0.8 g
  Tumor Volume: 840 ± 155 mm^3
NCI-H1975 xenograft; 1 mpk biw, day 11
  Body Weight: 25.2 ± 1.1 g
  Tumor Volume: 1265 ± 144 mm^3
NCI-H1975 xenograft; 1 mpk biw, day 14
  Body Weight: 26.0 ± 1.0 g
  Tumor Volume: 1455 ± 130 mm^3
NCI-H1975 xenograft; 3 mpk biw, day 0
  Body Weight: 23.6 ± 0.4 g
  Tumor Volume: 166 ± 13 mm^3
NCI-H1975 xenograft; 3 mpk biw, day 2
  Body Weight: 23.6 ± 0.5 g
  Tumor Volume: 241 ± 20 mm^3
NCI-H1975 xenograft; 3 mpk biw, day 4
  Body Weight: 24.0 ± 0.8 g
  Tumor Volume: 377 ± 38 mm^3
NCI-H1975 xenograft; 3 mpk biw, day 7
  Body Weight: 24.8 ± 0.8 g
  Tumor Volume: 605 ± 84 mm^3
NCI-H1975 xenograft; 3 mpk biw, day 9
  Body Weight: 24.4 ± 0.9 g
  Tumor Volume: 732 ± 95 mm^3
NCI-H1975 xenograft; 3 mpk biw, day 11
  Body Weight: 25.1 ± 0.8 g
  Tumor Volume: 1095 ± 207 mm^3
NCI-H1975 xenograft; 3 mpk biw, day 14
  Body Weight: 25.0 ± 0.7 g
  Tumor Volume: 1343 ± 349 mm^3
NCI-H1975 xenograft; 10 mpk biw, day 0
  Body Weight: 23.3 ± 1.4 g
  Tumor Volume: 168 ± 6 mm^3
NCI-H1975 xenograft; 10 mpk biw, day 2
  Body Weight: 22.5 ± 1.7 g
  Tumor Volume: 209 ± 31 mm^3
NCI-H1975 xenograft; 10 mpk biw, day 4
  Body Weight: 22.4 ± 1.7 g
  Tumor Volume: 269 ± 23 mm^3
NCI-H1975 xenograft; 10 mpk biw, day 7
  Body Weight: 22.6 ± 1.9 g
  Tumor Volume: 419 ± 22 mm^3
NCI-H1975 xenograft; 10 mpk biw, day 9
  Body Weight: 22.4 ± 1.8 g
  Tumor Volume: 442 ± 23 mm^3
NCI-H1975 xenograft; 10 mpk biw, day 11
  Body Weight: 22.3 ± 1.9 g
  Tumor Volume: 442 ± 26 mm^3
NCI-H1975 xenograft; 10 mpk biw, day 14
  Body Weight: 22.7 ± 2.0 g
  Tumor Volume: 421 ± 31 mm^3
NCI-H1975 xenograft; NCI-H1975, 10 mg/kg
  Best response at 10 mg/kg: CR
NCI-H1975 xenograft; NCI-H1975, 1 mpk, biw, day 14
  TGI: 3.0%
  Tumor Volume: 1455 ± 130 mm^3
NCI-H1975 xenograft; NCI-H1975, 3 mpk, biw, day 14
  TGI: 11.2%
  Tumor Volume: 1343 ± 349 mm^3
NCI-H1975 xenograft; NCI-H1975, 10 mpk, biw, day 14
  TGI: 80.9%
  Tumor Volume: 421 ± 31 mm^3
NCI-H1975 xenograft; NCI-H1975, dose leading to tumor-stasis
  Minimally Effective Dose IV BIW: <10 mg/kg
NCI-H1975 xenograft; after 4 weeks 10 mg/kg biw
  tumor volume after regression: below 50 mm3
NCI-H1975 xenograft; at PG-D40
  body weight effect: marked body weight lost
HT-29 xenograft; 10 mg/kg biw
  tumor response: significant tumor inhibition effect, but didn't cause tumor regression
HT-29 xenograft; 1 mpk biw, day 0
  Body Weight: 23.0 ± 0.2 g
  Tumor Volume: 160 ± 27 mm^3
HT-29 xenograft; 1 mpk biw, day 2
  Body Weight: 22.8 ± 0.2 g
  Tumor Volume: 189 ± 18 mm^3
HT-29 xenograft; 1 mpk biw, day 4
  Body Weight: 22.3 ± 0.5 g
  Tumor Volume: 203 ± 13 mm^3
HT-29 xenograft; 1 mpk biw, day 6
  Body Weight: 22.3 ± 0.5 g
  Tumor Volume: 260 ± 18 mm^3
HT-29 xenograft; 1 mpk biw, day 8
  Body Weight: 22.3 ± 0.4 g
  Tumor Volume: 273 ± 35 mm^3
HT-29 xenograft; 1 mpk biw, day 11
  Body Weight: 22.4 ± 0.7 g
  Tumor Volume: 453 ± 45 mm^3
HT-29 xenograft; 1 mpk biw, day 13
  Body Weight: 22.3 ± 0.7 g
  Tumor Volume: 533 ± 43 mm^3
HT-29 xenograft; 3 mpk biw, day 0
  Body Weight: 22.2 ± 0.2 g
  Tumor Volume: 159 ± 36 mm^3
HT-29 xenograft; 3 mpk biw, day 2
  Body Weight: 22.1 ± 0.4 g
  Tumor Volume: 178 ± 41 mm^3
HT-29 xenograft; 3 mpk biw, day 4
  Body Weight: 22.0 ± 0.5 g
  Tumor Volume: 214 ± 51 mm^3
HT-29 xenograft; 3 mpk biw, day 6
  Body Weight: 22.4 ± 0.6 g
  Tumor Volume: 268 ± 70 mm^3
HT-29 xenograft; 3 mpk biw, day 8
  Body Weight: 22.6 ± 0.6 g
  Tumor Volume: 297 ± 87 mm^3
HT-29 xenograft; 3 mpk biw, day 11
  Body Weight: 22.0 ± 0.4 g
  Tumor Volume: 472 ± 129 mm^3
HT-29 xenograft; 3 mpk biw, day 13
  Body Weight: 22.2 ± 0.3 g
  Tumor Volume: 616 ± 145 mm^3
HT-29 xenograft; 10 mpk biw, day 0
  Body Weight: 24.6 ± 1.2 g
  Tumor Volume: 164 ± 32 mm^3
HT-29 xenograft; 10 mpk biw, day 2
  Body Weight: 23.6 ± 1.2 g
  Tumor Volume: 177 ± 28 mm^3
HT-29 xenograft; 10 mpk biw, day 4
  Body Weight: 22.1 ± 1.5 g
  Tumor Volume: 195 ± 36 mm^3
HT-29 xenograft; 10 mpk biw, day 6
  Body Weight: 22.9 ± 1.5 g
  Tumor Volume: 232 ± 54 mm^3
HT-29 xenograft; 10 mpk biw, day 8
  Body Weight: 21.2 ± 1.2 g
  Tumor Volume: 198 ± 44 mm^3
HT-29 xenograft; 10 mpk biw, day 11
  Body Weight: 21.2 ± 1.7 g
  Tumor Volume: 182 ± 46 mm^3
HT-29 xenograft; 10 mpk biw, day 13
  Body Weight: 21.7 ± 1.0 g
  Tumor Volume: 146 ± 32 mm^3
HT-29 xenograft; HT-29, 10 mg/kg
  Best response at 10 mg/kg: PR
HT-29 xenograft; HT-29, 1 mpk, biw, day 14
  TGI: 24.0%
  Tumor Volume: 533 ± 43 mm^3
HT-29 xenograft; HT-29, 3 mpk, biw, day 14
  TGI: 6.8%
  Tumor Volume: 616 ± 145 mm^3
HT-29 xenograft; HT-29, 10 mpk, biw, day 14
  TGI: 103.6%
  Tumor Volume: 146 ± 32 mm^3
HT-29 xenograft; HT-29, dose leading to tumor-stasis
  Minimally Effective Dose IV BIW: 10 mg/kg
